Experimental data reported in patent publication US5919771A, “Urea and thiourea derivatives of glycopeptides” (Eli Lilly and Company, priority 1998, dated 1999).

Assays:
Assay type in all cases: cell-based
[1] = tested on: Staphylococcus haemolyticus 105; test: MIC, standard broth micro-dilution assay, SH 105
Protocol: (§1) The antibacterial efficacy of the present compounds is illustrated by Table II. The minimal inhibitory concentrations (MICs) were determined using a standard broth micro-dilution assay.

[2] = tested on: Streptococcus pyogenes C203; test: MIC, standard broth micro-dilution assay, SPY C203
Protocol: as §1

[3] = tested on: Streptococcus pneumoniae P1; test: MIC, standard broth micro-dilution assay, SPN P1
Protocol: as §1

[4] = tested on: Staphylococcus aureus 447; test: MIC, standard broth micro-dilution assay, SA 447
Protocol: as §1

[5] = tested on: Staphylococcus epidermidis 270; test: MIC, standard broth micro-dilution assay, SE 270
Protocol: as §1

[6] = tested on: Staphylococcus aureus 446; test: MIC, standard broth micro-dilution assay, SA 446
Protocol: as §1

[7] = tested on: Staphylococcus aureus 489; test: MIC, standard broth micro-dilution assay, SA 489
Protocol: as §1

[8] = tested on: Staphylococcus haemolyticus 415; test: MIC, standard broth micro-dilution assay, SH 415
Protocol: as §1

[9] = tested on: Enterococcus faecium and faecalis (SENSITIVE); conditions: geometric mean of 4-6 isolates
Protocol: as §1

[10] = tested on: Enterococcus faecium and faecalis (RESISTANT); conditions: geometric mean of 4-6 isolates
Protocol: as §1

Row | SMILES | Minimal Inhibitory Concentration (MIC) SH 105 [1] | Minimal Inhibitory Concentration (MIC) SPY C203 [2] | Minimal Inhibitory Concentration (MIC) SPN P1 [3] | Minimal Inhibitory Concentration (MIC) SA 447 [4] | Minimal Inhibitory Concentration (MIC) SE 270 [5] | Minimal Inhibitory Concentration (MIC) SA 446 [6] | Minimal Inhibitory Concentration (MIC) SA 489 [7] | Minimal Inhibitory Concentration (MIC) SH 415 [8] | Minimal Inhibitory Concentration (MIC) SENSITIVE [9] | Minimal Inhibitory Concentration (MIC) RESISTANT [10]
1 | CCCCc1ccc(NC(=S)N(C)C(CC(C)C)C(=O)NC2C(=O)NC(CC(N)=O)C(=O)NC3C(=O)NC4C(=O)NC(C(=O)NC(C(=O)O)c5cc(O)cc(O)c5-c5cc4ccc5O)C(OC4CC(C)(N)C(O)C(C)O4)c4ccc(c(Cl)c4)Oc4cc3cc(c4OC3OC(CO)C(O)C(O)C3OC3CC(C)(NCc4ccc(Oc5ccccc5)cc4)C(O)C(C)O3)Oc3ccc(cc3Cl)C2O)cc1 (centres unmarked) [Example 18, N^LEU -((p-n-BUTYLPHENYL)-THIOCARBAMOYL)-N^DISACC -(p-PHENOXYBENZYL)A82846B] | 2 | 0.25 | 2 | 2 | 2 | 2 | 2 | 2 | 1.7 | 4.7
2 | CC(C)C[C@H](C(=O)N[C@H]1C(=O)N[C@@H](CC(N)=O)C(=O)N[C@H]2C(=O)N[C@H]3C(=O)N[C@H](C(=O)N[C@H](C(=O)O)c4cc(O)cc(O)c4-c4cc3ccc4O)[C@H](O[C@H]3C[C@](C)(N)[C@@H](O)[C@H](C)O3)c3ccc(c(Cl)c3)Oc3cc2cc(c3O[C@@H]2O[C@H](CO)[C@@H](O)[C@H](O)[C@H]2O[C@H]2C[C@](C)(NCc3ccc(Cl)cc3)[C@@H](O)[C@H](C)O2)Oc2ccc(cc2Cl)[C@H]1O)N(C)C(=S)Nc1ccccc1 [Example 2, N^LEU -(PHENYLTHIOCARBAMOYL)-N^DISACC -(p-CHLOROBENZYL)A82846B] | 8 | 0.125 | 0.25 | 2 | 4 | 2 | 2 | 16 | 3.4 | 128
3 | CC(C)CC(C(=O)NC1C(=O)NC(CC(N)=O)C(=O)NC2C(=O)NC3C(=O)NC(C(=O)NC(C(=O)O)c4cc(O)cc(O)c4-c4cc3ccc4O)C(OC3CC(C)(N)C(O)C(C)O3)c3ccc(c(Cl)c3)Oc3cc2cc(c3OC2OC(CO)C(O)C(O)C2OC2CC(C)(NCc3ccc(Oc4ccccc4)cc3)C(O)C(C)O2)Oc2ccc(cc2Cl)C1O)N(C)C(=S)Nc1cccc2ccccc12 (centres unmarked) [Example 7, N^LEU -(1-NAPHTHYLTHIOCARBAMOYL)-N^DISACC -(p-PHENOXYBENZYL)A82846B] | 4 | 0.25 | ≤ 0.06 | 1 | 0.5 | 4 | 2 | 2 | 3 | 19
4 | COc1ccc(NC(=S)N(C)C(CC(C)C)C(=O)NC2C(=O)NC(CC(N)=O)C(=O)NC3C(=O)NC4C(=O)NC(C(=O)NC(C(=O)O)c5cc(O)cc(O)c5-c5cc4ccc5O)C(OC4CC(C)(N)C(O)C(C)O4)c4ccc(c(Cl)c4)Oc4cc3cc(c4OC3OC(CO)C(O)C(O)C3OC3CC(C)(N)C(O)C(C)O3)Oc3ccc(cc3Cl)C2O)cc1 (centres unmarked) [Example 9, N^LEU -((p-METHOXYPHENYL)-THIOCARBAMOYL)A82846B] | 32 | – | – | 8 | 16 | 8 | 4 | 32 | 21 | > 128
5 | CCCCc1ccc(CNC2(C)CC(OC3C(Oc4c5cc6cc4Oc4ccc(cc4Cl)C(OC4CC(C)(N)C(O)C(C)O4)C4NC(=O)C(NC(=O)C6NC(=O)C(CC(N)=O)NC(=O)C(NC(=O)C(CC(C)C)N(C)C(=S)Nc6ccccc6)C(O)c6ccc(c(Cl)c6)O5)c5ccc(O)c(c5)-c5c(O)cc(O)cc5C(C(=O)O)NC4=O)OC(CO)C(O)C3O)OC(C)C2O)cc1 (centres unmarked) [Example 21, N^LEU -(PHENYLTHIOCARBAMOYL)-N^DISACC -(p-n-BUTYLBENZYL)-A82846B] | – | – | – | – | – | – | – | – | 2.6 | 32
6 | CC(C)CC(C(=O)NC1C(=O)NC(CC(N)=O)C(=O)NC2C(=O)NC3C(=O)NC(C(=O)NC(C(=O)O)c4cc(O)cc(O)c4-c4cc3ccc4O)C(OC3CC(C)(N)C(O)C(C)O3)c3ccc(c(Cl)c3)Oc3cc2cc(c3OC2OC(CO)C(O)C(O)C2OC2CC(C)(N)C(O)C(C)O2)Oc2ccc(cc2Cl)C1O)N(C)C(=S)Nc1ccc(Cl)cc1 (centres unmarked) [Example 8, N^LEU -((p-CHLOROPHENYL)-THIOCARBAMOYL)A82846B] | 16 | – | – | 4 | 8 | 2 | 2 | 64 | 8 | > 128
7 | CC(C)CC(C(=O)NC1C(=O)NC(CC(N)=O)C(=O)NC2C(=O)NC3C(=O)NC(C(=O)NC(C(=O)O)c4cc(O)cc(O)c4-c4cc3ccc4O)C(OC3CC(C)(N)C(O)C(C)O3)c3ccc(c(Cl)c3)Oc3cc2cc(c3OC2OC(CO)C(O)C(O)C2OC2CC(C)(NCc3ccc(Oc4ccccc4)cc3)C(O)C(C)O2)Oc2ccc(cc2Cl)C1O)N(C)C(=O)Nc1ccccc1 (centres unmarked) [Example 24, N^LEU -(PHENYLCARBAMOYL)-N^DISACC -(p-PHENOXYBENZYL)A82846B] | 0.25 | – | – | 1 | 1 | 2 | 1 | 1 | 0.87 | 16
8 | COc1ccc(NC(=S)N(C)C(CC(C)C)C(=O)NC2C(=O)NC(CC(N)=O)C(=O)NC3C(=O)NC4C(=O)NC(C(=O)NC(C(=O)O)c5cc(O)cc(O)c5-c5cc4ccc5O)C(OC4CC(C)(N)C(O)C(C)O4)c4ccc(c(Cl)c4)Oc4cc3cc(c4OC3OC(CO)C(O)C(O)C3OC3CC(C)(NCc4ccc(Oc5ccccc5)cc4)C(O)C(C)O3)Oc3ccc(cc3Cl)C2O)cc1 (centres unmarked) [Example 11, N^LEU -((p-METHOXYPHENYL)-THIOCARBAMOYL)-N^DISACC -(p-PHENOXYBENZYL)A82846B] | 1 | – | – | 2 | 2 | 4 | 2 | 2 | 2.6 | 38
9 | CC(C)C[C@H](C(=O)N[C@H]1C(=O)N[C@@H](CC(N)=O)C(=O)N[C@H]2C(=O)N[C@H]3C(=O)N[C@H](C(=O)N[C@H](C(=O)O)c4cc(O)cc(O)c4-c4cc3ccc4O)[C@H](O[C@H]3C[C@](C)(N)[C@@H](O)[C@H](C)O3)c3ccc(c(Cl)c3)Oc3cc2cc(c3O[C@@H]2O[C@H](CO)[C@@H](O)[C@H](O)[C@H]2O[C@H]2C[C@](C)(NCc3ccc(Oc4ccccc4)cc3)[C@@H](O)[C@H](C)O2)Oc2ccc(cc2Cl)[C@H]1O)N(C)C(=S)Nc1ccccc1 [Example 3, N^LEU -(PHENYLTHIOCARBAMOYL)-N^DISACC -(p-PHENOXYBENZYL)-A82846B] | 2 | ≤ .06 | – | 1 | 1 | 4 | 2 | 2 | 1.7 | 16
10 | CC(C)CC(C(=O)NC1C(=O)NC(CC(N)=O)C(=O)NC2C(=O)NC3C(=O)NC(C(=O)NC(C(=O)O)c4cc(O)cc(O)c4-c4cc3ccc4O)C(OC3CC(C)(N)C(O)C(C)O3)c3ccc(c(Cl)c3)Oc3cc2cc(c3OC2OC(CO)C(O)C(O)C2OC2CC(C)(NCc3ccc(Oc4ccccc4)cc3)C(O)C(C)O2)Oc2ccc(cc2Cl)C1O)N(C)C(=S)Nc1ccc(Cl)cc1 (centres unmarked) [Example 10, N^LEU -((p-CHLOROPHENYL)-THIOCARBAMOYL)-N^DISACC -(p-PHENOXYBENZYL)A82846B] | 1 | – | – | 2 | 2 | 4 | 2 | 2 | 1.7 | 9.5
11 | CC(C)CC(C(=O)NC1C(=O)NC(CC(N)=O)C(=O)NC2C(=O)NC3C(=O)NC(C(=O)NC(C(=O)O)c4cc(O)cc(O)c4-c4cc3ccc4O)C(OC3CC(C)(N)C(O)C(C)O3)c3ccc(c(Cl)c3)Oc3cc2cc(c3OC2OC(CO)C(O)C(O)C2OC2CC(C)(N)C(O)C(C)O2)Oc2ccc(cc2Cl)C1O)N(C)C(=O)Nc1ccccc1 (centres unmarked) [Example 23, N^LEU -(PHENYLCARBAMOYL)A82846B] | 0.5 | – | – | 4 | 4 | 4 | 1 | 64 | 5.3 | > 128
